How the values were obtained:
[1] = Gel test (vial inversion); format: physicochemical
Description: A weighed amount of solid was dissolved in 0.5 or 1 ml of the solvent in a closed 2.0 ml vial using a heating gun or a heating block and subsequently slowly cooled to room temperature by standing in the air. Gelation was determined by turning the vial upside down and gentle shaking. If no flow of the mass was observed, the mass was defined to be a gel. Alternatively, a weighed amount of solid was dissolved in 1 mL of solvent by the addition of acid or base. The subsequent addition of base or acid then gave gelation. Alternatively, a weighed amount of solid was dissolved in a small amount of solvent. The subsequent addition of a large amount of non-solvent then gave gelation. Alternatively, the solution of gelator/thickener was added to the non-solvent, resulting in gelation. Alternatively, a weighed amount of solid was mixed with 1 mL of solvent by sonication. After stopping the sonication, gelation occurred. Alternatively a weighed amount of solid was mixed with 1 mL of solvent by brief vortexing after which gelation occurred. Alternatively a weighed amount of solid was mixed with 1 mL of solvent after which gelation occurred.

α-chymotrypsin = assay: α-chymotrypsin-induced cleavage followed by fluorescence detection of released 6-AQ; format: biochemical; conditions: for Km / Vmax: from Lineweaver-Burke and Eadie-Hofstee plots, for 12 only points where V still increased; for Cleavage (6-AQ formation) by α-chymotrypsin: substrate 7.54 mM (12 as gel, 39 as solution), α-chymotrypsin 40 mM as printed
Description: In order to investigate the enzymatic cleavage of a gelator-drug conjugate, we selected the enzyme α-chymotrypsin, which is capable of cleaving amide bonds at the C═O terminus of L-phenylalanine-based substrates like compound 12 (CHex(AmPhe-6AQ)(AmEtOEtOH)2), resulting here in the release of the fluorogenic “model drug” 6-aminoquinoline (6-AQ). This system allows easy monitoring of the cleavage kinetics owing to the fact that the excitation and emission maxima for the amide and amino form of this compound are adequately separated (amide form: λex=315 nm, λem=370 nm, amine form: λex=339 nm, λem=550 nm).
Gelator 12 was dissolved in a small amount of DMSO (100 μL), whereas α-chymotrypsin was dissolved in a buffer solution (Tris-HCl, 0.1 M, pH 7.75, 900 μL). […] In order to determine the effect of gelation on the enzymatic cleavage, the water-soluble, non-gelating, model substrate 39 was synthesized with a structure similar to that of gelator 12.
Fluorescence experiments were carried out in which the α-chymotrypsin-induced cleavage of compounds 12 and 39 was followed through the detection of 6-AQ.
Legend to FIG. 2 (from bottom to top): Trace a: gel of gelator 12 (0.5 wt %=7.54 mM); trace b: gel of gelator 12 (0.5 wt %=7.54 mM)+α-chymotrypsin ([…]); trace c: gel of gelator 12 (0.5 wt %=7.54 mM)+compound 39 (7.54 mM)+α-chymotrypsin (40 μM); trace d: solution of compound 39 (7.54 mM)+α-chymotrypsin (40 mM)
Performing the cleavage experiments for both 12 and 39 at different substrate concentrations and plotting the initial rates as a function of the substrate concentration (i.e., 12 or 39) results in the points plotted in FIG. 3. […] The initial rates for gelator 12, however, increase up to a certain point, after which they remain the same, even at much higher concentrations. From the corresponding Lineweaver-Burke and Eadie-Hofstee plots, values for Vmax and Km could be obtained for both compounds. […] From these points, the following values were calculated. […] Using these values for Vmax and Km, the theoretical curves could be plotted for both compounds. For compound 39, the experimentally determined points fitted very well on the curve. […] Below this concentration, a sample of 12 exists as a solution. So, even though the molecules in a gel are in constant equilibrium with those in solution and the overall gelator concentration may increase well above the CGC (thus bringing about gelation), the concentration of gelator in solution can never exceed the CGC. The fact that the initial rate for 12 no longer increases once the substrate (i.e., gelator) concentration exceeds the CGC, proves that only the gelator molecules in solution can be cleaved by the enzyme.

[2] = Cryo-TEM and small angle x-ray diffraction of hydrogel fibers; format: physicochemical
Description: Cryo-transmission Electron Microscopy Measurements
A gel was prepared following one of the procedures described above. A small amount of the gel was carefully deposited on a bare copper grid, using a spatula. The excess solution was blotted with a filter paper, leaving a thin sample film. The grid was subsequently plunged into liquid ethane for vitrification. The vitrified specimens were transferred to a Gatan model 626 cryostage and observed in a Philips CM 120 electron microscope operating at 120 kV. The images were recorded under low-dose conditions at about −170° C. The samples were all prepared in duplo.
Presumably, the lack of (C3-)symmetry prevents the aggregation of the fibers into large bundles from taking place, and leads to the highly uniform and very low fiber diameter, the latter in turn leading to clear gel.
The left-side image is a low magnification, the right-side image a high magnification (white bar at the upper left-hand quarter in the right-side image corresponds to 4.5 nm). […] The high uniformity of the fiber thicknesses can be clearly observed in the close-up image on the right.

[3] = TEM particle size of a compound of interest included in gels of gelator 12; format: physicochemical; conditions: for Crystal size, reference without gelator: DMSO/H2O 100 μL/900 μL
Description: Transmission Electron Microscopy Measurements
A gel was prepared following one of the procedures described above. A small amount of the gel was carefully deposited on a carbon-coated copper grid, using a spatula. The excess solution was blotted with a filter paper, leaving a thin sample film. The samples were examined using a JEOL 1200EX (80-100 kV) and pictures were taken of representative parts. The samples were all prepared in duplo.
To a solution containing 4 mg (6.0×10^−3 mmol) of gelator 12 (CHex(AmPhe-6AQ)(AmEtOEtOH)2) and 1.22 mg (6.0×10^−3 mmol) of pyrene in 100 μL of DMSO, 900 μL of distilled water were quickly added.
To determine the stability in time of pyrene particles in a gel, samples were prepared as described in the previous paragraph and examined with TEM after 7 days, 18 days, 1 month and 2 months. As reference, samples containing only pyrene in DMSO/H2O (100 μL/900 μL) were also prepared. Moreover, to determine the effect of the gelator in solution, i.e., not in the gel, samples containing 4 mg (6.0×10^−3 mmol) of gelator 12 (CHex(AmPhe-6AQ)(AmEtOEtOH)2), 1.22 mg (6.0×10^−3 mmol) of pyrene, 100 μL of DMSO and 900 μL of 1N HCl were prepared. […] All samples were kept at room temperature, in the dark.
To a solution containing 1.96 mg (2.9×10^−3 mmol) of gelator 12 (CHex(AmPhe-6AQ)(AmEtOEtOH)2) and 1.0 mg (2.9×10^−3 mmol) of danazol in 50 μL of DMSO, 950 μL of distilled water were quickly added. […] In a reference sample consisting only of danazol in 100 μL of DMSO and 900 μL of distilled water, rod-shaped danazol particles are 0.5-10 μm wide and 15-53 μm long. […]

For O=C(NCCOCCO)[C@@H]1C[C@H](C(=O)NCCOCCO)C[C@H](C(=O)N[C@@H](Cc2ccccc2)C(=O)Nc2ccc3ncccc3c2)C1 [Compound 12, CHex(AmPhe-6AQ)(AmEtOEtOH)2], the Gel test ([1]; 0.3 mg/mL in H2O or PBS) was “clear gel”, the Gel test ([1]; 0.5 mg/mL in H2O/DMSO (19:1)) was “clear gel” and the Gel test ([1]; 0.6 mg/mL in H2O/EtOH (19:1)) was “clear gel”. The Gel formation ([1]; 4 mg with pyrene in DMSO 100 μL + 1N HCl 900 μL) was “does not gelate”, the Gel test ([1]; 25 mg/ml in EtOH) was “turbid gel” and the Gel formation ([1]; DMSO 100 μL + α-chymotrypsin in Tris-HCl 0.1 M pH 7.75 900 μL, rapid addition) was “clear, homogeneous gel”. The “Critical gelator concentration (CGC)” value ([1]; H2O:DMSO=9:1) was 1.5 mM, the Km (α-chymotrypsin) was 1.8 mM and the Vmax (α-chymotrypsin) was 4.1 µmol/min. For the same molecule, the “Cleavage (6-AQ formation) in the absence of α-chymotrypsin” value (α-chymotrypsin; gel 0.5 wt % = 7.54 mM, fluorescence at 550 nm) was “no cleavage”, the “experimentally determined Vmax” value (α-chymotrypsin; plateau of initial rate above the CGC) was 1.8 µmol/min and the “Cleavage (6-AQ formation) by α-chymotrypsin” value (α-chymotrypsin) was “minor cleavage”. For the same molecule, the Gel fiber thickness [2] was “about 4.5 nm”.
In the case of O=C(O)CCCC(=O)N[C@@H](Cc1ccccc1)C(=O)Nc1ccc2ncccc2c1 [Compound 39, reference compound], the Solubility in water [1] was “water-soluble”, the Gelation behaviour ([1]; water) was “non-gelating” and the Km (α-chymotrypsin) was 4.9 mM. The Vmax (α-chymotrypsin) was 22.3 µmol/min and the “Cleavage (6-AQ formation) by α-chymotrypsin” value (α-chymotrypsin) was “more readily cleaved”.
In the case of C#C[C@]1(O)CC[C@H]2[C@@H]3CCC4=Cc5oncc5C[C@]4(C)[C@H]3CC[C@@]21C [danazol], the “Length of rod-shaped particles, reference without gelator” value ([3]; DMSO 100 μL + water 900 μL) was 15-53 μm, the “Width of rod-shaped particles, reference without gelator” value ([3]; DMSO 100 μL + water 900 μL) was 0.5-10 μm and the “Presence of rod-shaped particles” value ([3]; freeze-dried gel of 12, 5:1) was “no rod-shaped particles were present”. The “Length of rod-shaped particles in gel” value ([3]; gel of 12, 1:1, some particles) was 9 μm, the “Width of rod-shaped particles in gel” value ([3]; gel of 12, 1:1, some particles) was 0.7 μm and the “Presence of rod-shaped particles” value ([3]; gel of 12, 2:1) was “no rod-shaped danazol particles are present”. The “Size of some particles in gel” value ([3]; gel of 12, 2:1) was 2 μm, the “Size of very few particles in gel” value ([3]; gel of 12, 2:1) was 10 μm and the “Presence of rod-shaped particles” value ([3]; gel of 12, 5:1) was “no rod-shaped particles are present”. The “Size of some particles in gel” value ([3]; gel of 12, 5:1) was 400 nm, the “Average particle size in gel” value ([3]; gel of 12, gelator:danazol 1:1, DMSO/water 50 μL/950 μL) was 140-700 nm and the “Average particle size in gel” value ([3]; gel of 12, gelator:danazol 2:1) was 28 nm. The “Average particle size in gel” value ([3]; gel of 12, gelator:danazol 5:1) was 14 nm.
For c1cc2ccc3cccc4ccc(c1)c2c34 [pyrene], the “Crystal size, reference without gelator” value ([3]; after 2 months) was 2-12 μm, the “Crystal size, reference without gelator” value ([3]; after 7 days, 18 days or 1 month) was 0.4-9 μm and the “Crystal size in gel” value ([3]; gel of 12, 1:1, DMSO/H2O, after 1 month) was ~150 nm. For the same molecule, the “Particle size in gel” value ([3]; gel of 12, 1:1, DMSO/H2O, after 7 days, room temperature, dark) was 37-185 nm, the “Particle size in gel” value ([3]; gel of 12, 1:1, DMSO/H2O, after 18 days) was 30-190 nm and the “Crystal size, gelator in solution” value ([3]; with 12 1:1 in DMSO/1N HCl 100 μL/900 μL (not gelled), after 7 days) was 0.2-3 μm. For the same molecule, the “Size of larger crystals, gelator in solution” value ([3]; with 12 1:1 in DMSO/1N HCl (not gelled), after 1 month) was 6 μm.
For NC(=O)CC[C@H](NC(=O)[C@@H]1C[C@H](C(=O)O)C[C@H](C(=O)N[C@@H](CCC(N)=O)C(=O)Nc2ccc3ccccc3c2)C1)C(=O)Nc1ccc2ccccc2c1 [Compound 38, CHex(AmGlnAmβNA)2(COOH)], the Gel test ([1]; H2O, concentration not given) was “gel”.

From patent US7534915B2, “Non-symmetrical gelling agent” (Applied Nanosystems B.V., priority 2003, dated 2009)
